Where a name gives a salt, the structure may show the parent alone. Read-outs that look alike come from different tables or passages of the source.
Assays:
[1] = tested on: peritoneal macrophages; assay: Absorbing capacity of mouse peritoneal macrophages (neutral red); format: in vivo, mice
[2] = tested on: stem cells; assay: Inactivation of stem cells with allogenic lymphocytes (graft versus host, spleen endocolonies); format: in vivo, mice
[3] = tested on: antibody-producing cells; assay: Antibody-producing cells in the spleen of mice immunized with sheep erythrocytes; format: in vivo
[4] = tested on: interferon; settings: human blood serum; cited from earlier work
[5] = tested on: interferon; settings: cell culture; cited from earlier work
[6] = tested on: interferon; settings: mouse blood serum; cited from earlier work
[7] = cited from earlier work
[8] = in vivo; cited from earlier work
[9] = tested on: influenza viruses; assay: Virucidal action on influenza viruses
[10] = tested on: influenza B virus; assay: Activity against influenza B virus; format: cell-based; settings: hydrochloride
Experimental: The antiviral effect of the preparation against influenza A/B viruses was tested on a hen embryo fabroblast cell culture.

[11] = tested on: influenza A/B viruses; assay: Medicinal effect on experimental influenzal pneumonia of mice induced by influenza A/B viruses; format: in vivo
[12] = Maximum tolerable concentration for chick embryo fibroblasts; format: cell-based; settings: chicken
[13] = tested on: influenza A/B viruses; format: cell-based
[14] = tested on: influenza A virus; assay: Activity against influenza A virus; format: cell-based
[15] = in vivo; settings: mouse, po
[16] = 1 day after single administration
[17] = 2 day after single administration
[18] = 3 day after single administration

Compound: c1ccc([C@H]2CN3CCSC3=N2)cc1 [Levamisole, (-) 2,3,5,6,-tetrahydro-6-phenylimidazo-/2.1.b/-thiazole hydrochloride, reference compound]
- Absorbing Capacity of Peritoneal Macrophages [1, 16]: 24.2 ± 4.5 mg/6 × 10^6 cells
- Absorbing Capacity, percent of control [1, 16]: 116 ± 21%
- Absorbing Capacity of Peritoneal Macrophages [1, 17]: 27.7 ± 3.2 mg/6 × 10^6 cells
- Absorbing Capacity, percent of control [1, 17]: 121 ± 14%
- Absorbing Capacity of Peritoneal Macrophages [1, 18]: 32.5 ± 2.4 mg/6 × 10^6 cells
- Absorbing Capacity, percent of control [1, 18]: 135 ± 9.9%
- absorbing capacity of macrophages ([1]; by 2-3 days after a single administration, p<0.05): 138±11%
- effect on counts of macrophages washed off the peritoneal cavity ([1]; mouse, in vivo): no effect on counts of macrophages
- The counts of spleen endocolonies (M ± m) ([2]; 1.25 × 10^6 lymphocytes): 2.3 ± 0.5
- The counts of spleen endocolonies (M ± m) ([2]; 2.5 × 10^6 lymphocytes): 1.1 ± 0.2
- The counts of spleen endocolonies (M ± m) ([2]; 5.0 × 10^6 lymphocytes): 0.7 ± 0.2
- The counts of spleen endocolonies (M ± m) ([2]; no lymphocytes given, hydrochloride): 1.1 ± 0.3
- The counts of spleen endocolonies (M ± m) ([2]; no lymphocytes given, listed as levamisole, hydrochloride): somewhat decreases the yield of the spleen colonies
- effect on yield of spleen colonies under graft versus host conditions ([2]; preparation 100 mg per 1 kg orally, levamisole 5 mg per 1 kg): identical but a less pronounced effect
- immunopotentiating effect on tumor-carrier animals ([3]; 7-17 day of tumor development, single (3 days prior to immunization) or 5-times daily): inefficient
- Antibody-producing cells in spleen (% of control) ([3]; intact mice, 5 times at a 5-day interval): 170 ± 15.1%
- Antibody-producing cells in spleen (% of control) ([3]; intact mice, during 3 days, daily): 164 ± 6.1%
- immunostimulating effect on irradiated animals ([3]; irradiated animals): of low efficacy
- Antibody-producing cells in spleen (% of control) ([3]; totally irradiated (2 Gr.), 5 times at a 5-day interval): 104 ± 6.0%
- Antibody-producing cells in spleen (% of control) ([3]; totally irradiated (2 Gr.), during 3 days, daily): 174 ± 24.0%
- immunopotentiating effect on totally irradiated tumor-carrier animals ([3]; totally irradiated tumor-carriers): also had the immunopotentiating effect
- Antibody-producing cells in spleen (% of control) ([3]; totally irradiated tumor-carriers (2 Gr.), 5 times at a 5-day interval): 402 ± 12.5%
- Antibody-producing cells in spleen (% of control) ([3]; totally irradiated tumor-carriers (2 Gr.), during 3 days, daily): 86.0 ± 35.0%
- Antibody-producing cells in spleen (% of control) ([3]; tumor-carriers, 5 times at a 5-day interval): 91 ± 14.0%
- Antibody-producing cells in spleen (% of control) ([3]; tumor-carriers, during 3 days, daily): 14 ± 23.0%
- interferon titers [4]: 40-80 U/ml
- interferon titers [5]: 80-160 U/ml
- interferon titers [6]: 160-320 U/ml
- side-effects ([7]; in vivo): a headache, sleep disturbances, olfactory hallicinations (odour changes), allergic skin hypersensitivity, influenza-like and neurologic symptoms
- toxicity ([7]; in vivo): highly toxic
- agranulocytosis: decrease of neutrophile to a value ([7]; treatment as an immunomodulator): below 25%

Compound: CC(N)C12CC3CC(CC(C3)C1)C2 (stereo not shown) [Remantadine, alfa-methyl-1-adamantanemethylamine hydrochloride]
- side-effect [8]: side-effect on a central nervous system
- virucidal action on influenza viruses [9]: No virucidal action
- efficacy against influenza B virus [10]: It is inefficient against
- efficacy against influenza B virus ([10]; listed as remantadine): inefficient against influenza B virus
- medicinal (chemotherapeutical) effect on influenzal pneumonia [11]: Exert a medicinal effect
- MNTC [12]: 20 µg/mL
- inhibition of influenza A/B virus reproduction / chemotherapeutical effect [13]: Inhibits the reproduc-
- efficacy against influenza A virus [14]: efficient only against influenza A virus
- LD50 [15]: 340 mg/kg

Reference: patent US5198552A, “Indole derivative having antiviral, interferon-inducing and immunomodulatory effects” (priority 1991, dated 1993)
